Assay results reported in patent publication US9512084B2, “Amino pyrimidine derivatives” (Novartis AG, priority 2013, dated 2016).

Legend:
Btk = Btk (Rattus norvegicus, UniProt Q5S255); assay: Inhibition of Btk activity in blood (in vitro B cell activation assay, CD86, rat whole blood); format: cell-based; settings: Lewis rat whole blood diluted to 50%, anti-rat IgM + rat IL-4, 24 hours, CD86 on CD45RA positive B cells
Description: Alternatively, the inhibitory activity of the present compounds in blood was assessed in the following in vitro B cell activation assay. Whole blood was collected from the abdominal aorta of anaesthetized adult male Lewis rats and was anticoagulated with 100 U/ml sodium heparin. Blood was then diluted to 50% with high glucose DMEM (Amimed) supplemented with […] penicillin, […], 2 mM L-glutamin, 50 mg/ml dextran 40 and 5% FCS (Fetaclone I, Gibco). Then, 190 μl prediluted blood was mixed in 96 well U-bottomed microtiter plates (Nunc) with 10 μl of serial dilutions of test compounds in DMSO. […] Activation of B cells was measured by flow cytometry after staining for the B cell subset with PE-Cy5-labeled anti-ratCD45RA (Beckton-Dickinson) and for the activation marker CD86 (PE-labeled anti-rat CD86 (Beckton-Dickinson). All staining procedures were performed at RT for 30 min in the dark in 96-deep well V-bottomed microtiter plates (Corning) with BD Lysing Solution (Beckton-Dickinson).
Cytometric data was acquired on a FACScalibur flow cytometer (BD Biosciences) and the subpopulation of lymphocytes were gated according to size and granularity and further analyzed for expression of CD45RA and the activation markers. Data for the inhibition of B cell activation were calculated from the percentage of cells positively stained for activation markers within the CD45RA positive population.

[1] = target: full-length human recombinant BTK (Homo sapiens (Human), UniProt Q06187); assay: Inhibition of Btk enzymatic activity (biochemical enzyme assay, Caliper); settings: 6.4 nM enzyme solution, 164 μM ATP solution, 30° C., 60 minutes
Description: The inhibitory activity of the present compounds against Btk was assessed in a biochemical enzyme assay. […] The assay plates were prepared by addition of 50 nl per well of compound solution in 90% DMSO. […] Kinase reactions were analyzed on a Caliper LC3000 workstation by separating phosphorylated and unphosphorylated peptides and kinase activities were calculated from the amounts of newly formed phospho-peptide.

Sequence of full-length human recombinant BTK (Q06187 whole entry): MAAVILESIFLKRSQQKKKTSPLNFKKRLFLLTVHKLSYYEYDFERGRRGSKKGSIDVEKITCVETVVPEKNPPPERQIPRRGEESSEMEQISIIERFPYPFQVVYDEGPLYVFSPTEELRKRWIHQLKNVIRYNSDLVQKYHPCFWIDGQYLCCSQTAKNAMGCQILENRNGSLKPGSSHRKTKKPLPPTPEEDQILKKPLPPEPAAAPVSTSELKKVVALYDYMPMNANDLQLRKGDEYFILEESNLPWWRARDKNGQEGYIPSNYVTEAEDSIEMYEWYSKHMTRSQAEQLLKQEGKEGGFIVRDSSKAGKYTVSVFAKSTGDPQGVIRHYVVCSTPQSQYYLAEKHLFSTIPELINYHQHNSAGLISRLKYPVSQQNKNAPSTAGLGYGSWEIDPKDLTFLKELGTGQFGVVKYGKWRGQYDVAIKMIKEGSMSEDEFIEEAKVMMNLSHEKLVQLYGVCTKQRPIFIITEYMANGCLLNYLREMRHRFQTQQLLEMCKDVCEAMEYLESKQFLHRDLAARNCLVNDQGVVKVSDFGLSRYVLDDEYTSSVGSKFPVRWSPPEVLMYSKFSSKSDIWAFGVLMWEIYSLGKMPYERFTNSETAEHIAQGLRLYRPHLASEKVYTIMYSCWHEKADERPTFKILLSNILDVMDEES
Sequence of Btk (Q5S255 1-660): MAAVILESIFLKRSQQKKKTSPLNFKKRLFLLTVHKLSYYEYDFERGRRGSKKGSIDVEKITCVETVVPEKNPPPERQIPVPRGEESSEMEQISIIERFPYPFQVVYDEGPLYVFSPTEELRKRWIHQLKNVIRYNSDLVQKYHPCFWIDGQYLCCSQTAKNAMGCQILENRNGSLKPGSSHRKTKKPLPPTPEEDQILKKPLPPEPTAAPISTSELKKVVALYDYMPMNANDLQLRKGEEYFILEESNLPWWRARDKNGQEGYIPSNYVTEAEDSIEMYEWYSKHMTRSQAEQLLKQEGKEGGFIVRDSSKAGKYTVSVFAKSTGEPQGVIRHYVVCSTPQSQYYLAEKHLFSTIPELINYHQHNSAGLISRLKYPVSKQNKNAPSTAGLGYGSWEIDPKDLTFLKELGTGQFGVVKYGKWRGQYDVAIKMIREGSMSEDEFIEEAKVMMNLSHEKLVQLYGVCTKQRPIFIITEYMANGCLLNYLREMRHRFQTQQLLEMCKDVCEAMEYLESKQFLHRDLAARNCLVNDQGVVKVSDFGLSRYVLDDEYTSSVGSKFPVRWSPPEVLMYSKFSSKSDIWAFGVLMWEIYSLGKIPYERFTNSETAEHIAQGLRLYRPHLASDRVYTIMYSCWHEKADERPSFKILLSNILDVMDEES

Row | SMILES | IC50 (Btk) [µM] | IC50 [1] [µM]
1 | C=CC(=O)N1CCC[C@@H](COc2c(N)ncnc2-c2cc(F)cc(NC(=O)c3ccc(C4CC4)cc3F)c2C)C1 [Example 37, (R)—N-(3-(5-((1-Acryloylpiperidin-3-yl)methoxy)-6-aminopyrimidin-4-yl)-5-fluoro-2-methylphenyl)-4-cyclopropyl-2-fluorobenzamide] | 0.968 | 0.032
2 | C=CC(=O)N1CC[C@H](OC)[C@H]1COc1c(N)ncnc1-c1cc(F)cc(NC(=O)c2ccc(C3CC3)cc2F)c1C [Example 38, N-(3-(5-(((2R,3S)-1-Acryloyl-3-methoxypyrrolidin-2-yl)methoxy)-6-aminopyrimidin-4-yl)-5-fluoro-2-methylphenyl)-4-cyclopropyl-2-fluorobenzamide] | 0.07 | 0.002
3 | C=CC(=O)N1C[C@H](C#N)C[C@H]1COc1c(N)ncnc1-c1cc(F)cc(NC(=O)c2ccc(C3CC3)cc2F)c1C [Example 39, N-(3-(5-(((2S,4R)-1-Acryloyl-4-cyanopyrrolidin-2-yl)methoxy)-6-aminopyrimidin-4-yl)-5-fluoro-2-methylphenyl)-4-cyclopropyl-2-fluorobenzamide] | 0.176 | 0.001

More lines, now with the values ahead:

Row | IC50 (Btk) [µM] | IC50 [1] [µM] | SMILES
4 | 0.072 | 0.002 | C=CC(=O)N1CC[C@H]1COc1c(N)ncnc1-c1cc(F)cc(N2CCc3cc(C4CC4)ccc3C2=O)c1CO [Example 35, (S)-2-(3-(5-((1-Acryloylazetidin-2-yl)methoxy)-6-aminopyrimidin-4-yl)-5-fluoro-2-(hydroxymethyl)phenyl)-6-cyclopropyl-3,4-dihydroisoquinolin-1(2H)-one]
5 | 0.08 | 0.002 | C=CC(=O)N1C[C@@H](C#N)C[C@H]1COc1c(N)ncnc1-c1cc(F)cc(NC(=O)c2ccc(C3CC3)cc2F)c1C [Example 40, N-(3-(5-(((2S,4S)-1-Acryloyl-4-cyanopyrrolidin-2-yl)methoxy)-6-aminopyrimidin-4-yl)-5-fluoro-2-methylphenyl)-4-cyclopropyl-2-fluorobenzamide]
